{"source": "patent US5057513A", "about": "“Spiro-thiazepine derivatives useful as PAF antagonists” (Fujisawa Pharmaceutical Co., Ltd., priority 1989, dated 1991)", "key": {"[1]": {"test_system": "PAF-induced vascular permeability increase", "test": "Inhibition of PAF-induced vascular permeability increase", "format": "in vivo, 6-week-old male ddY mice", "settings": "Mus musculus, ip; mice; intraperitoneally, 5 minutes before Evan's blue; PAF 50 ng intradermally; read-out: ED50 (effective dose required to inhibit PAF-induced vascular permeability increase by 50%)", "description": "PAF (50 ng) was injected intradermally to the depilated back of 6-week-old male ddY mice. Evan's blue (1 mg) was injected intravenously 5 minutes before the PAF injection, and the test compound was administered intraperitoneally 5 minutes before the Evan's blue injection. Thirty minutes later, the animals were killed and the area of dye leakage was measured.\nThe inhibition was expressed as ED50 value, i.e. effective dose (mg/kg) required to inhibit PAF-induced vascular permeability increase by 50%."}, "PAF-induced lethality": {"test_system": "PAF-induced lethality", "test": "Effect of the test compound on the PAF-induced lethality in rats", "format": "in vivo, male Wistar rats", "settings": "Rattus norvegicus, survival for 24 hours", "description": "Conscious male Wistar rats, 150-200 g body weight, 7 weeks old, were used in the experiment on PAF-induced lethality. The animals were fasted before the experiment. Test compound was given orally 60 minutes before (or intravenously simultaneously with) intravenous PAF injection (10 μg/kg) into a tail vein. Survival of the animals was recorded for 24 hours after intravenous PAF injection."}, "[2]": {"test_system": "endotoxin-induced disseminated intravascular coagulation (serum FDP)", "test": "Effect of the test compound on the endotoxin-induced disseminated intravascular coagulation", "format": "in vivo, male Wister rats", "settings": "Rattus norvegicus, rats", "description": "Conscious male Wister rats, 150-200 g body weight, 7 weeks old, were used in the experiment on endotoxin-induced disseminated intravascular coagulation (DIC). The animals were fasted before the experiment. A 10 mg/kg dose of endotoxin (E. coli) dissolved in saline was given as an injection via tail vein. Test compound was given orally 60 minutes before and 6 hours after endotoxin. The intravenous administration of the test compound into a tail vein was simultaneous with intravenous injection of endotoxin.\nArterial blood samples were taken 4 hours (Test compound; intravenously) and 24 hours (Test compound; orally) after endotoxin for measurements of serum FDP (fibrin degradation products), respectively. FDP was determined by the latex aggregation test."}, "[3]": {"test_system": "PAF-induced bronchoconstriction", "test": "Effect of the test compound on PAF-induced bronchoconstriction in the guinea-pig", "format": "in vivo, Male Hartley guinea-pigs", "settings": "Cavia porcellus, po, orally 30 minutes before PAF (0.64 μg/ml, 1 ml/kg), read-out: ED50 (effective dose of the test compound to inhibit the PAF-induced bronchoconstriction by 50%)", "description": "Male Hartley guinea-pigs (400-500 g) were anesthetized with sodium pentobarbital (25 mg/kg, intraperitoneally). The right jugular vein was catheterized for injection of PAF (0.64 μg/ml, 1 ml/kg), and the animals were tracheotomized and ventilated with a respiratory pump (Harvard B-34, 5 ml/stroke, 60 strocks/minutes).\nThe test compound was administered orally 30 minutes before challenge with PAF.\n(ED50 : effective dose of the test compound to inhibit the PAF-induced bronchoconstriction by 50%)."}, "[4]": {"test_system": "platelet aggregation induced with PAF", "test": "Test 1 (Inhibition of platelet aggregation)", "format": "cell-based, male Japanese white rabbit", "settings": "Oryctolagus cuniculus; rabbit platelet rich plasma; final concentration of PAF usually 32 nM; read-out: IC50 (concentration required to inhibit the platelet aggregation response by 50%)", "description": "Blood was collected through the polyethylene catheter introduced into the carotid artery of male Japanese white rabbit (2.5 to 3 kg body weight). The blood was anticoagulated with 1 volume of 3.8% sodium citrate to 9 volume of blood. Platelet rich plasma (PRP) was prepared by centrifugation of the blood at 150 g for 10 minutes at room temperature. The PRP was diluted with platelet poor plasma obtained by further centrifugation of the blood at 1,000 g for 20 minutes. The platelet number was 5×10^5 cells/mm^3. Platelet aggregation induced with PAF [1-O-hexadecyl-2-O-acetyl-sn-glycero-3-phosphorylcholine] was measured by the nephelometric technique of Born and Cross [cf. Journal of Physiology 168, 178-188 (1963)] using HKK Hema tracer (trade name, made by Niko Bioscience Inc.).\nActivity of inhibitor was expressed as IC50 value, i.e. concentration required to inhibit the platelet aggregation response by 50%. The final concentration of PAF was usually 32 nM."}}, "note": "Read-outs that look alike come from different tables or passages of the source."}
{"compound": "O=C1CC2(CCCCC2Cc2cccc(Cl)c2)S(=O)(=O)CCN1Cc1cccnc1", "note": "(stereo not shown) [1-(3-Chlorophenylmethyl)-10-(3-pyridylmethyl)-11-oxo-7-thia-10-azaspiro[5.6]dodecane 7,7-dioxide]", "values": [{"measurement": "ED50", "setting": "[1]", "result": 2.9, "unit": "mg/kg"}]}
{"compound": "O=C1C[C@]2(CCCC[C@H]2Cc2ccccc2)S(=O)(=O)CCN1Cc1cccnc1", "note": "[(1S,6S)-1-Phenylmethyl-10-(3-pyridylmethyl)-11-oxo-7-thia-10-azaspiro[5.6]dodecane 7,7-dioxide]", "values": [{"measurement": "ED50", "setting": "PAF-induced lethality; intravenous, simultaneously with PAF 10 μg/kg i.v., read-out: ED50 (mg/kg), PAF-induced lethality, intravenous", "result": 1, "unit": "mg/kg"}, {"measurement": "ED50", "setting": "PAF-induced lethality; oral, 60 minutes before PAF 10 μg/kg i.v., read-out: ED50 (mg/kg), PAF-induced lethality, oral", "result": 2, "unit": "mg/kg"}, {"measurement": "ED50", "setting": "[2]; intravenous, simultaneous with endotoxin 10 mg/kg, serum FDP at 4 hours, read-out: ED50 (mg/kg), endotoxin-induced DIC, intravenous", "result": 2.4, "unit": "mg/kg"}, {"measurement": "ED50", "setting": "[2]; oral, 60 minutes before and 6 hours after endotoxin 10 mg/kg, serum FDP at 24 hours, read-out: ED50 (mg/kg), endotoxin-induced DIC, oral", "result": 6.8, "unit": "mg/kg"}, {"measurement": "ED50", "setting": "[3]", "result": 3.7, "unit": "mg/kg"}]}
{"compound": "CN(C)CCN1C(=O)CC2(CCCCC2Cc2ccccc2Cl)[S+]([O-])c2ccccc21", "note": "(stereo not shown) [2'-(2-Chlorophenylmethyl)-4,5-dihydro-4-oxo-5-{2-(N,N-dimethylamino)ethyl}spiro[1,5-benzothiazepine-2(3H), 1'-cyclohexane] 1-oxide]", "values": [{"measurement": "IC50", "setting": "[4]", "result": 0.17, "unit": "µg/mL"}]}
